Converted amounts (≈) assume the structure as drawn. *1 amine or outer side, *2 acyl side, *3 side chain or, on linkers, in order; H or OH if unused. Where a SMILES comes first, the peptide text is derived from it. Bridges are numbered along the chain shown (N, C = ends). [ ]: non-standard residue; d: D form. The star is where a group is joined. ξ: configuration not given here. Dab(3ξ-OH) = O=C([C@@H](N[*:1])C(O)CN[*:3])[*:2]; Decanoyl(3ξ-OH) = CCCCCCCC(O)CC(=O)*; X1 = C/C=C(/N[*:1])C(=O)[*:2]; Dab = NCC[C@H](N)C(=O)O
How the values were obtained:
Pseudoalteromonas hCg-42 = assay type: cell-based, Pseudoalteromonas sp.; conditions: Pseudoalteromonas hCg-42 (producing strain); broth microdilution, 0.1 to 100 µM, 1.10^6 UFC/mL, 48 h, read by unaided eye
Experimental: (§1) Antibacterial activity was assayed against a panel of micro-organisms including human and aquaculture pathogenic bacterial species. MICs were performed and defined according to internationally recognized standards (CLSI [21]). Polymyxin B (PMB), an antibiotic CLP produced by Paenibacillus polymyxa, was used as positive control. The major produced alterins, i.e., alt_952, alt_954, alt_970 and alt_980 were assayed against the whole panel of target cells while the minor ones were only tested against a few bacterial strains (Table 2).
(§2) The bacterial strains Aeromonas caviae CIP 7616, Aeromonas hydrophila CIP 7614, Escherichia coli ML35, Escherichia coli SBS 363, Salmonella enterica CIP 8297 and Yersinia ruckeri ATCC 29473 were grown in Tryptic Soy Broth. The marine bacterial strains Vibrio crassostreaeJ2–9, Vibrio tasmaniensisLGP32, Vibrio tapetis CECT 4600 were grown in Marine Broth. All of them were cultivated at optimal temperature according to ATCC and CIP specifications. The strain Vibrio parahaemolyticus13-028A/3 was grown at 28 °C in Tryptic Soy Broth supplemented in NaCl (20 g.L^−1) according to [47]. The strains Pseudoalteromonas sp. hCg-6 and hCg-42 were cultured using a synthetic medium containing: 17.11 g sucrose, 30 g sea salts (Sigma-S9883), 7.6 g K2HPO4, 3 g KH2PO4 and 20 mL MEM 50X (Dulbecco) per liter. The cultures were grown at 18 °C for 72 h with shaking (100 rpm).
(§3) MICs were determined using broth microdilution method according to [21]. To resume, antibacterial compounds ranging from 0.1 to 100 µM were assayed against the target bacteria in mid-logarithmic phase culture (1.10^6 UFC.mL^−1) in adapted culture medium according to the strain. MICs were examined by unaided eye after a 48h-incubation time at the optimal temperature growth. The lipopeptide PMB (Sigma-P4932) was used as antibiotic control.

Pseudoalteromonas hCg-6 = assay type: cell-based, Pseudoalteromonas sp.; conditions: Pseudoalteromonas hCg-6 (producing strain); broth microdilution, 0.1 to 100 µM, 1.10^6 UFC/mL, 48 h, read by unaided eye
Experimental: as §1, §2, §3

A. caviae CIP 7616 = assay type: cell-based, Aeromonas caviae; conditions: broth microdilution, 0.1 to 100 µM, 1.10^6 UFC/mL, 48 h, read by unaided eye
Experimental: as §1, §2, §3

Y. ruckeri ATCC 29473 = assay type: cell-based, Yersinia ruckeri; conditions: Y. ruckeri ATCC 29473; broth microdilution, 0.1 to 100 µM, 1.10^6 UFC/mL, 48 h, read by unaided eye
Experimental: as §1, §2, §3

[1] = test system: V. parahaemolyticus 13-028A/3; assay type: cell-based, Vibrio parahaemolyticus; conditions: broth microdilution, 0.1 to 100 µM, 1.10^6 UFC/mL, 48 h, read by unaided eye
Experimental: as §1, §2, §3

[2] = LPS binding, surface plasmon resonance (Biacore); parameters: species or system Escherichia coli; conditions: CLPs immobilized (500–600 RU) on CM5 chip, titrated with LPS, 25 °C, 10 mM Hepes pH 7.4, 150 mM NaCl, 3 mM EDTA
Text: To gain insights into LPS-alterin interactions, we used an endotoxin detection assay, the QCL-1000^TM Endpoint chromogenic Limulus Amoebocyte Lysate (LAL) assay (Lonza). We compared alt_954, alt_970 and alt_980 for their ability to bind LPS from E. coli O111:B4. All alterins bound to LPS in a dose-dependent manner, as indicated by the reduction of biologically active LPS with increasing alterins concentrations (Figure 4A). […] To examine alterin LPS-binding properties in more detail, we performed a surface plasmon resonance (SPR) assay using the Biacore technology (GE Healthcare). The SPR binding measurements were performed using the alt_954 and alt_970. PMB was used as a positive control. The CLPs were immobilized to a CM5 sensor chip surface and titrated with LPS. […] The dose-dependent effect observed (Figure 4B) highlights the LPS-binding properties of the alterins. Both LPS-binding assays, i.e., LAL and SPR, are fully agreeing for alt_954. Moreover, the LPS-binding properties of alterins followed the same general pattern as that of antibacterial activity.
Surface plasmon resonance experiments were carried out at 25 °C using a BIACORE 3000 apparatus (GE Healthcare, Uppsala, Sweden). […] The binding level in RU was measured at the end of the binding after normalization to the same CLP coated level.

S. enterica CIP 8297 = assay type: cell-based, Salmonella enterica; conditions: broth microdilution, 0.1 to 100 µM, 1.10^6 UFC/mL, 48 h, read by unaided eye
Experimental: as §1, §2, §3

E. coli SBS363 = assay type: cell-based, Escherichia coli; conditions: E. coli SBS363 (short-chain LPS); broth microdilution, 0.1 to 100 µM, 1.10^6 UFC/mL, 48 h, read by unaided eye
Experimental: as §1, §2, §3

E. coli ML35 = assay type: cell-based, Escherichia coli; conditions: E. coli ML35 (long-chain LPS); broth microdilution, 0.1 to 100 µM, 1.10^6 UFC/mL, 48 h, read by unaided eye
Experimental: as §1, §2, §3

V. tasmaniensis LGP 32 = assay type: cell-based, Vibrio tasmaniensis; conditions: V. tasmaniensis LGP 32; broth microdilution, 0.1 to 100 µM, 1.10^6 UFC/mL, 48 h, read by unaided eye
Experimental: as §1, §2, §3

V. tasmaniensis LGP32 = assay: Viability (cultivability, CFU count) in seawater; assay type: cell-based, Vibrio tasmaniensis; conditions: 20 µM, 4 h incubation in sterile seawater, inoculum 1.10^6 UFC/mL, plated in duplicate
Experimental: As a first step, we have measured the antimicrobial activity of alt_952, alt_954, alt_970 and alt_980 against V. tasmaniensis LGP32 in seawater after a 4 hour-long incubation. […] The effects on membrane were also investigated under the same experimental conditions using live/dead bacterial viability kit for flow cytometry (Figure 6). A net cultivability loss of V. tasmaniensis (2-log reduction) was observed when incubated with alt_954 and alt_980 indicative of a bactericidal effect (Figure 7A). In these conditions, V. tasmaniensis was much less affected by alt_970 (1-log reduction) and not by alt_952 (Figure 7A).
[…] After a 4 h-long incubation, viable bacteria were counted. Diluted samples (50 µL) in sterile seawater were spread in duplicate on appropriate medium. Cultivable bacterial concentration (CFU mL^−1) was determined after overnight incubation at optimal growth temperature.

V. tapetis CECT 4600T = assay type: cell-based, Vibrio tapetis; conditions: V. tapetis CECT 4600T; broth microdilution, 0.1 to 100 µM, 1.10^6 UFC/mL, 48 h, read by unaided eye
Experimental: as §1, §2, §3

P. aeruginosa ATCC 27853 = assay type: cell-based, Pseudomonas aeruginosa; conditions: P. aeruginosa ATCC 27853; broth microdilution, 0.1 to 100 µM, 1.10^6 UFC/mL, 48 h, read by unaided eye
Experimental: as §1, §3

C/C=C1/NC(=O)[C@@H](NC(=O)CC(O)CCCCCCC)C(O)CNC(=O)[C@H](C(O)CN)NC(=O)[C@H](C(O)CN)NC(=O)[C@H](CCCNC(=N)N)NC(=O)[C@H](CC(C)C)NC(=O)[C@H](CCN)NC1=O (stereo partly shown) [alt_970] ({Decanoyl(3ξ-OH)}-[Dab(3ξ-OH)][X1][Dab]LR[Dab(3ξ-OH)][Dab(3ξ-OH)]; lactam 1-C)
MIC (Pseudoalteromonas hCg-42): >100 µM | MIC (Pseudoalteromonas hCg-6): >100 µM | MIC (A. caviae CIP 7616): 17.6 µM (≈ 17.1 µg/mL) | MIC (Y. ruckeri ATCC 29473): 1.1 µM (≈ 1.07 µg/mL) | MIC [1]: 6.25 µM (≈ 6.07 µg/mL) | LPS binding response (SPR, RU) [2]: the response was halved | MIC (S. enterica CIP 8297): 1.1 µM (≈ 1.07 µg/mL) | MIC (E. coli SBS363): 0.1 µM (≈ 0.0971 µg/mL) | MIC (E. coli ML35): 35 µM (≈ 34 µg/mL) | MIC (V. tasmaniensis LGP 32): 8.8 µM (≈ 8.55 µg/mL) | cultivability loss of V. tasmaniensis (log reduction of CFU) (V. tasmaniensis LGP32): 1 log | MIC (V. tapetis CECT 4600T): >100 µM | MIC (P. aeruginosa ATCC 27853): 35.2 µM (≈ 34.2 µg/mL)

From article PMC7764243, “Alterins Produced by Oyster-Associated Pseudoalteromonas Are Antibacterial Cyclolipopeptides with LPS-Binding Activity” (Marine Drugs, 2020)
